{"source": "paper PMC6409085", "about": "“Three odorant-binding proteins are involved in the behavioral response of Sogatella furcifera to rice plant volatiles” (PeerJ, 2019)", "key": {"SfurOBP11": {"target": "SfurOBP11 (Sogatella furcifera, UniProt V5T6E3)", "sequence (V5T6E3 entry or part of it)": "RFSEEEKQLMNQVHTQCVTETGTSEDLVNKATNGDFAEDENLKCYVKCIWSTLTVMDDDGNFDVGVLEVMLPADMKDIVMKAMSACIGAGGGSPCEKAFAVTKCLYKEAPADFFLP", "test": "Binding of 1-NPN to SfurOBP11 (fluorescence titration)", "details": "for Fluorescence intensity: OBP11, triplicate columns", "method": "(§1) Fluorescence competitive binding assays were performed on Tecan Spark 10M (Tecan Group Ltd., Männedorf, Switzerland) with the F96 Black ELIAS Plate (Sangon) ([Khuhro et al., 2017]; [Liu et al., 2017]). The solutions were excited at 337 nm and emission spectra were recorded between 390 and 490 nm. First, to test the binding constants of 1-NPN to the SfurOBPs, a 2.0 µM solution of protein in 50 mM Tris-HCl (pH = 7.4) was titrated with 1 mM 1-NPN to achieve virous concentrations. Next, the competitive binding of each odorant was measured using the 1-NPN as fluorescent reporter and odorant as competitor. The concentrations of protein and 1-NPN were both 2.0 µM, the odorant added after protein and 1-NPN added into the well of ELIAS Plate for 2 min. The final concentrations of each competitor were 2, 4, 6, 8, 10, 12, 14, 16, 18 and 20 µM. After 2 min of odorant added, the fluorescence intensity was measured and recorded. The volume of mixed solution in each well was maintained at 250 µL. Each interaction was performed in triplicates.\n(§2) GraphPad Prism 7.0 software (GraphPad Software, Inc., La Jolla, CA, USA) was used to calculated and generated the binding constants (K1−NPN) of 1-NPN to SfurOBPs and relative Scatchard plots ([Ban et al., 2003]; [Li et al., 2016]). Dissociation constant (Ki) of each odorant to SfurOBP was computed from the corresponding IC50 value (the half maximal inhibitory concentration), using the following equation: Ki=[IC50]/(1 + [1-NPN]/K1−NPN), where [1-NPN] is the free concentration of 1-NPN and K1−NPN is the dissociation constant of the complex protein/1-NPN."}, "SfurOBP3": {"target": "SfurOBP3 (Sogatella furcifera, UniProt V5T818)", "sequence (V5T818 entry or part of it)": "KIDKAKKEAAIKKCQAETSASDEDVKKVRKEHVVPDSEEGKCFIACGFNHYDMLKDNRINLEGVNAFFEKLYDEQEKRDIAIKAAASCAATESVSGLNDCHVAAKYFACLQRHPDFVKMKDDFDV", "test": "Binding of 1-NPN to SfurOBP3 (fluorescence titration)", "details": "for Fluorescence intensity: OBP3, triplicate columns", "method": "as §1, §2"}, "SfurOBP1": {"target": "SfurOBP1 (Sogatella furcifera, UniProt V5T8N5)", "sequence (V5T8N5 entry or part of it)": "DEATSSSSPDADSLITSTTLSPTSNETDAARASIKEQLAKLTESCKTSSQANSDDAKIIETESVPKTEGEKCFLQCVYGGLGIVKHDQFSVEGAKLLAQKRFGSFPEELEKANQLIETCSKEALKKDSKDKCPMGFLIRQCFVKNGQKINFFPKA", "test": "Binding of 1-NPN to SfurOBP1 (fluorescence titration)", "details": "for Fluorescence intensity: OBP1, triplicate columns", "method": "as §1, §2"}, "SfurOBP2": {"target": "SfurOBP2 (Sogatella furcifera, UniProt V5T759)", "sequence (V5T759 entry or part of it)": "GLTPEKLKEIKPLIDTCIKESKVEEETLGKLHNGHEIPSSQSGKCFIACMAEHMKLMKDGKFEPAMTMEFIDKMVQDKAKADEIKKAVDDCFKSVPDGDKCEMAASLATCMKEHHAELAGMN", "test": "Binding of 1-NPN to SfurOBP2 (fluorescence titration)", "details": "for Fluorescence intensity: OBP2, triplicate columns", "method": "as §1, §2"}}, "note": "“And” between values parts separate entries of the source, which are not always exact repeats. Equal values may be shown once."}
{"smiles": "c1ccc(Nc2cccc3ccccc23)cc1", "note": "[1-NPN, N-phenyl-1-naphthylamine]", "values": [{"measurement": "Fluorescence intensity", "setting": "SfurOBP11; 1-NPN 2 (unit not given)", "value": "34926 and 31369 and 32128"}, {"measurement": "Fluorescence intensity", "setting": "SfurOBP11; 1-NPN 4 (unit not given)", "value": "46136 and 60649 and 53421"}, {"measurement": "Fluorescence intensity", "setting": "SfurOBP11; 1-NPN 6 (unit not given)", "value": "59058 and 63562 and 67479"}, {"measurement": "Fluorescence intensity", "setting": "SfurOBP11; 1-NPN 8 (unit not given)", "value": "73431 and 79398 and 77472"}, {"measurement": "Fluorescence intensity", "setting": "SfurOBP11; 1-NPN 10 (unit not given)", "value": "83685 and 83190 and 84209"}, {"measurement": "Fluorescence intensity", "setting": "SfurOBP11; 1-NPN 12 (unit not given)", "value": "87527 and 87829 and 87441"}, {"measurement": "Fluorescence intensity", "setting": "SfurOBP11; 1-NPN 14 (unit not given)", "value": "113208 and 119321 and 82397"}, {"measurement": "Fluorescence intensity", "setting": "SfurOBP11; 1-NPN 16 (unit not given)", "value": "121541 and 129453 and 101542"}, {"measurement": "Fluorescence intensity", "setting": "SfurOBP11; 1-NPN 18 (unit not given)", "value": "129684 and 132053 and 101150"}, {"measurement": "Fluorescence intensity", "setting": "SfurOBP11; 1-NPN 20 (unit not given)", "value": "142842 and 126669 and 108121"}, {"measurement": "Fluorescence intensity", "setting": "SfurOBP11; 1-NPN 22 (unit not given)", "value": "118001 and 129399 and 126785"}, {"measurement": "Fluorescence intensity", "setting": "SfurOBP11; 1-NPN 24 (unit not given)", "value": "123359 and 122043 and 121686"}, {"measurement": "Kd", "setting": "SfurOBP11; SfurOBP11, 2.0 µM protein, 50 mM Tris-HCl pH 7.4, read-out: dissociation constant of 1-NPN", "value": 10.4, "unit": "µM"}, {"measurement": "Fluorescence intensity", "setting": "SfurOBP3; 1-NPN 2 (unit not given)", "value": "61430 and 58985 and 59650"}, {"measurement": "Fluorescence intensity", "setting": "SfurOBP3; 1-NPN 4 (unit not given)", "value": "77503 and 80113 and 80262"}, {"measurement": "Fluorescence intensity", "setting": "SfurOBP3; 1-NPN 6 (unit not given)", "value": "85325 and 83919 and 82776"}, {"measurement": "Fluorescence intensity", "setting": "SfurOBP3; 1-NPN 8 (unit not given)", "value": "97386 and 97137 and 85039"}, {"measurement": "Fluorescence intensity", "setting": "SfurOBP3; 1-NPN 10 (unit not given)", "value": "98049 and 103605 and 94167"}, {"measurement": "Fluorescence intensity", "setting": "SfurOBP3; 1-NPN 12 (unit not given)", "value": "100936 and 110967 and 98958"}, {"measurement": "Fluorescence intensity", "setting": "SfurOBP3; 1-NPN 14 (unit not given)", "value": "99019 and 113580 and 103187"}, {"measurement": "Fluorescence intensity", "setting": "SfurOBP3; 1-NPN 16 (unit not given)", "value": "114929 and 113428 and 104178"}, {"measurement": "Fluorescence intensity", "setting": "SfurOBP3; 1-NPN 18 (unit not given)", "value": "121020 and 111471 and 116920"}, {"measurement": "Fluorescence intensity", "setting": "SfurOBP3; 1-NPN 20 (unit not given)", "value": "114200 and 113028 and 114937"}, {"measurement": "Fluorescence intensity", "setting": "SfurOBP3; 1-NPN 22 (unit not given)", "value": "115221 and 112203 and 110696"}, {"measurement": "Fluorescence intensity", "setting": "SfurOBP3; 1-NPN 24 (unit not given)", "value": "120756 and 110811 and 112155"}, {"measurement": "Fluorescence intensity", "setting": "SfurOBP3; 1-NPN 26 (unit not given)", "value": "117527 and 109823 and 115694"}, {"measurement": "Fluorescence intensity", "setting": "SfurOBP3; 1-NPN 28 (unit not given)", "value": "107913 and 111968 and 118918"}, {"measurement": "Fluorescence intensity", "setting": "SfurOBP3; 1-NPN 30 (unit not given)", "value": "110746 and 113690 and 116658"}, {"measurement": "Kd", "setting": "SfurOBP3; SfurOBP3, 2.0 µM protein, 50 mM Tris-HCl pH 7.4, read-out: dissociation constant of 1-NPN", "value": 2.42, "unit": "µM"}, {"measurement": "Fluorescence intensity", "setting": "SfurOBP1; 1-NPN 2 (unit not given)", "value": "7934 and 7244 and 7558"}, {"measurement": "Fluorescence intensity", "setting": "SfurOBP1; 1-NPN 4 (unit not given)", "value": "14870 and 13520 and 13256"}, {"measurement": "Fluorescence intensity", "setting": "SfurOBP1; 1-NPN 6 (unit not given)", "value": "19450 and 20173 and 19826"}, {"measurement": "Fluorescence intensity", "setting": "SfurOBP1; 1-NPN 8 (unit not given)", "value": "25948 and 27851 and 26112"}, {"measurement": "Fluorescence intensity", "setting": "SfurOBP1; 1-NPN 10 (unit not given)", "value": "30874 and 31162 and 28910"}, {"measurement": "Fluorescence intensity", "setting": "SfurOBP1; 1-NPN 12 (unit not given)", "value": "33259 and 35914 and 35970"}, {"measurement": "Fluorescence intensity", "setting": "SfurOBP1; 1-NPN 14 (unit not given)", "value": "37528 and 37617 and 40532"}, {"measurement": "Fluorescence intensity", "setting": "SfurOBP1; 1-NPN 16 (unit not given)", "value": "43674 and 43309 and 43505"}, {"measurement": "Fluorescence intensity", "setting": "SfurOBP1; 1-NPN 18 (unit not given)", "value": "50472 and 51665 and 48009"}, {"measurement": "Fluorescence intensity", "setting": "SfurOBP1; 1-NPN 20 (unit not given)", "value": "53471 and 53438 and 53794"}, {"measurement": "Fluorescence intensity", "setting": "SfurOBP1; 1-NPN 22 (unit not given)", "value": "54404 and 53461 and 54332"}, {"measurement": "Fluorescence intensity", "setting": "SfurOBP1; 1-NPN 24 (unit not given)", "value": "55616 and 55933 and 55336"}, {"measurement": "Fluorescence intensity", "setting": "SfurOBP1; 1-NPN 26 (unit not given)", "value": "55005 and 58722 and 54776"}, {"measurement": "Fluorescence intensity", "setting": "SfurOBP1; 1-NPN 28 (unit not given)", "value": "60087 and 56565 and 53471"}, {"measurement": "Fluorescence intensity", "setting": "SfurOBP1; 1-NPN 30 (unit not given)", "value": "59000 and 55051 and 51066"}, {"measurement": "Kd", "setting": "SfurOBP1; SfurOBP1, 2.0 µM protein, 50 mM Tris-HCl pH 7.4, read-out: dissociation constant of 1-NPN", "value": 24.2, "unit": "µM"}, {"measurement": "Fluorescence intensity", "setting": "SfurOBP2; 1-NPN 2 (unit not given)", "value": "23662 and 22289 and 22010"}, {"measurement": "Fluorescence intensity", "setting": "SfurOBP2; 1-NPN 4 (unit not given)", "value": "39603 and 44704 and 31870"}, {"measurement": "Fluorescence intensity", "setting": "SfurOBP2; 1-NPN 6 (unit not given)", "value": "50431 and 46158 and 47197"}, {"measurement": "Fluorescence intensity", "setting": "SfurOBP2; 1-NPN 8 (unit not given)", "value": "61337 and 63137 and 57001"}, {"measurement": "Fluorescence intensity", "setting": "SfurOBP2; 1-NPN 10 (unit not given)", "value": "59819 and 73730 and 69974"}, {"measurement": "Fluorescence intensity", "setting": "SfurOBP2; 1-NPN 14 (unit not given)", "value": "64863 and 65896 and 57584"}, {"measurement": "Fluorescence intensity", "setting": "SfurOBP2; 1-NPN 16 (unit not given)", "value": "70787 and 76872 and 65200"}, {"measurement": "Fluorescence intensity", "setting": "SfurOBP2; 1-NPN 18 (unit not given)", "value": "75833 and 70878 and 75400"}, {"measurement": "Fluorescence intensity", "setting": "SfurOBP2; 1-NPN 20 (unit not given)", "value": "67482 and 73624 and 78268"}, {"measurement": "Fluorescence intensity", "setting": "SfurOBP2; 1-NPN 22 (unit not given)", "value": "76334 and 74639 and 64277"}, {"measurement": "Kd", "setting": "SfurOBP2; SfurOBP2, 2.0 µM protein, 50 mM Tris-HCl pH 7.4, read-out: dissociation constant of 1-NPN", "value": 5.67, "unit": "µM"}]}
